Square brackets hold non-standard residues; d marks the D form. Peptide text beside a SMILES is read from it. Nle = CCCC[C@H](N)C(=O)O
What was measured:
cathepsin B = cathepsin B (Homo sapiens, UniProt P07858); conditions: Rock, et al., 1994; cited from earlier work
[1] = system: human microvascular endothelial cell line; experiment: TCA-cpm measurement in human microvascular endothelial cell line; type: cell-based; conditions: ALLN 40 μg/ml, 4 hours, 30 min. labeling
Hsp70 [2] = experiment: Hsp70 level in human microvascular endothelial cell line; type: cell-based; conditions: ALLN 40 μg/ml, 4 hours, 30 min. labeling
Protocol: ALLN induces Hsp70 protein levels in HepG2 cells in a dose-dependent manner. The effect of ALLN on the protein levels of Hsp70 was analysed by denaturing immunoprecipitation of extracts of [^3 H]-leucine radiolabeled HepG2 cells which had been pre-treated with ALLN for 4 hours at different doses. Denaturing immunoprecipitation was chosen because Hsp70 is a major cytosolic chaperone protein and it is co-immunoprecipitated with a number of other proteins under non-denaturingconditions (Beckmann, et al., 1990; Zhou, et al., 1995). […] This may be due to a low constitutive level of expression of Hsp73 (Hsp70) in HepG2 cells similar to that reported for other cell types in the absence of stress (Welch, et al., 1984). Treatment with ALLN was associated with a marked increase in Hsp70 level, which was further confirmed as Hsp72 (the inducible form) by Western blot (data not shown).

Hsp86 = experiment: Immunoprecipitation of Hsp86 from radiolabeled HepG2 cells; type: cell-based, human; conditions: HepG2, ALLN 4 hours
Protocol: (§1) FIGS. 7A-7B: Effects of ALLN on the biosynthesis of other members of Hsp family and related proteins. HepG2 cells were pre-treated and radiolabeled with or without ALLN for 4 hours as described in FIG. 1. Cell lysates were used for SDS-PAGE (A), or for immunoprecipitation with anti-Hsp25, -Hsp27, -Hsp60, -Hsp70, -Hsp86, -Hsp90, -Hsp104, -Bip, or -albumin antibodies respectively (1 μg/ml) (B). Because the anti-Hsp25, -Hsp27, -Hsp60 and Hsp90 antibodies are from a rat source, rabbit anti-rat IgG antibody was added after the first incubation, and the incubation was extended for another 1 hour at 4° C. before collection with protein A-Sepharose.Immunoprecipitates were loaded for SDS-PAGE and aliquoted for scintillation counting and plotting. Each value was presented as mean ±S.D. from three individual culture dishes.
(§2) HepG2 cells were preincubated for 4 hours in serum-free MEM and then radiolabeled with ^3 H-Leucine (150 μCi/ml) in a serum-free, leucine-free medium. […] Cell lysates containing equal amounts of trichloroacetic acid (TCA)-insoluble radioactivity were used for immunoprecipitations by incubating with individual monoclonal antibody (1 μg/ml) for 2.5 hours at 4° C. […]

Hsp27 = experiment: Immunoprecipitation of Hsp27 from radiolabeled HepG2 cells; type: cell-based, human; conditions: HepG2, ALLN 4 hours
Protocol: as §1, §2

Hsp70 [3] = experiment: Cellular Hsp70 levels in CHO cells; type: cell-based, Chinese hamster
apoB = conditions: Sakata, et al., 1993, unpublished data; cited from earlier work
Hsp90 = experiment: Immunoprecipitation of Hsp90 from radiolabeled HepG2 cells; type: cell-based, human; conditions: HepG2, ALLN 4 hours
Protocol: as §1, §2

CCCC[C@@H](C=O)NC(=O)[C@H](CC(C)C)NC(=O)[C@H](CC(C)C)NC(C)=O [ALLN, N-acetyl-leucyl-leucyl-norleucinal] (Ac-Leu-Leu-[Nle]-aldehyde)
Activity against cathepsin B (cathepsin B): significant activities | TCA-cpm measurement [1]: no change | Increment of Hsp70 level (Hsp70 [2]): 35 fold | Effect on Hsp86 (Hsp86): no effects | Effect on Hsp27 (Hsp27): no effects | Response of cellular Hsp70 levels (Hsp70 [3]): increasing cellular Hsp70 levels | Protection of apoB (apoB): protected | Effect on Hsp90 (Hsp90): no effects

Source: patent US5942494A, “Stimulation of gene expression and synthesis of heat shock protein 72/73 (HSP 70)” (The Trustees of Columbia University in the City of New York, priority 1996, dated 1999)
